Measurements as given in patent US8299267B2, “(3-hydroxy-4-amino-butan-2-yl) -3- (2-thiazol-2-yl-pyrrolidine-1-carbonyl) benzamide derivatives and related compounds as beta-secretase inhibitors for treating” (CoMentis, Inc., priority 2007, dated 2012).
Like-named read-outs stand apart in the source and are kept apart here.

Assays:
[1] = molecular target: memapsin 2 (Homo sapiens, UniProt P56817); test: Inhibition of memapsin 2 beta-secretase activity toward fluorogenic substrate FS-2; format: biochemical
Procedure, shortened: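 Memapsin 2 was preincubated with compound 20 min at pH 4, 37 °C, then reacted with fluorogenic substrate FS-2 (MCA-SEVNLDAEFK-DNP), an APP-derived Swedish-variant peptide. Inhibition was followed kinetically by fluorescence.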

[2] = molecular target: cathepsin D (Homo sapiens, UniProt P07339); test: Inhibition of cathepsin D activity (substrate peptide ELDLAVEFWHDR, MALDI-TOF); format: biochemical
Procedure: [The procedure below names another target; the source lists this target under the same test.] (§1) A substrate peptide NH3-ELDLAVEFWHDR-CO2 (SEQ ID NO.: 1) was dissolved at 2 mg/mL in 10% glacial acetic acid and diluted into 0.009M NaOH to obtain μM concentration at pH 4.1. After equilibration at 37 degrees C., the reactions were initiated by the addition of an aliquot of memapsin 2. Aliquots were removed at time intervals, and combined with an equal volume of MALDI-TOF matrix (α-hydroxycinnamic acid in acetone, 20 mg/mL) and immediately spotted in duplicate onto a stainless-steel MALDI sample plate. MALDI-TOF mass spectrometry was performed on a PE Biosystems Voyager DE. The instrument was operated at 25,000 accelerating volts in positive mode with a 150 ns delay. Ions with a mass-to-charge ratio (m/z) were detected in the range of 650-2000 atomic mass units. Data were analyzed by the Voyager Data Explorer module to obtain ion intensity data for mass species of substrates and corresponding products in a given mixture. Relative product formation was calculated as the ratio of signal intensity of the product to the sum of signal intensities of both product and the corresponding substrate. Relative product formed per unit time was obtained from non-linear regression analysis of the data representing the initial 15% formation of product using the model: 1−e^−kT, where k was the relative hydrolytic rate constant and T was time in seconds. Initial rates were expressed relative to uninhibited controls and fit to a tight-binding model of competitive inhibition as above.

[3] = molecular target: T1, memapsin 1 (Homo sapiens, UniProt Q9Y5Z0); test: Inhibition of memapsin 1 beta-secretase activity (substrate peptide ELDLAVEFWHDR, MALDI-TOF); format: biochemical
T1 sequence (Q9Y5Z0 63-518): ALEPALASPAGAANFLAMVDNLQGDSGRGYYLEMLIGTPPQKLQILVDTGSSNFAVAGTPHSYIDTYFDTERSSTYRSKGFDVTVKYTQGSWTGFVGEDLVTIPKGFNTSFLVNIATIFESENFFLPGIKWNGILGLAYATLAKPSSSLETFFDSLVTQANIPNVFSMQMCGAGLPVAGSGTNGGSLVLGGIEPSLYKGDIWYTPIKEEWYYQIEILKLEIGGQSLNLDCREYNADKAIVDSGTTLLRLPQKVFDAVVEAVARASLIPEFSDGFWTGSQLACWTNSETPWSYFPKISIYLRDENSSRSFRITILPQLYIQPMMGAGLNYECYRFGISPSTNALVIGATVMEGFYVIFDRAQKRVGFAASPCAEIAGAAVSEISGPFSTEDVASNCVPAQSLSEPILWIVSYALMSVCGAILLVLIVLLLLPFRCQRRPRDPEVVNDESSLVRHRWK
Procedure: [The procedure below names another target; the source lists this target under the same test.] as §1

[4] = tested on: Aβ production in Chinese hamster ovary cells that over-express human APP695 with the London and Swedish mutations; test: Cellular Aβ IC50 determination (Aβ40 sandwich ELISA); format: cell-based; conditions: Cricetulus griseus
Procedure, shortened: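 APP695 (London/Swedish)-overexpressing CHO cells were treated 48 h after seeding with serial dilutions from near 4 μM top concentration (0.4% DMSO) for 24 h at 37 °C. Secreted Aβ40 was quantified by sandwich ELISA relative to controls and fit to a 4-parameter IC50 model.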

[5] = memapsin 2, pH 4, 37° C., 20 minutes pre-incubation, substrate FS-2, read-out: M2Ki
[6] = cathepsin D, pH 4.1, 37 degrees C., read-out: CDKi
[7] = memapsin 1, pH 4.1, 37 degrees C., read-out: M1Ki
[8] = Aβ40 in CHO cells over-expressing human APP695, 24 h incubation

cathepsin D, sequence (P07339 65-412, species assumed): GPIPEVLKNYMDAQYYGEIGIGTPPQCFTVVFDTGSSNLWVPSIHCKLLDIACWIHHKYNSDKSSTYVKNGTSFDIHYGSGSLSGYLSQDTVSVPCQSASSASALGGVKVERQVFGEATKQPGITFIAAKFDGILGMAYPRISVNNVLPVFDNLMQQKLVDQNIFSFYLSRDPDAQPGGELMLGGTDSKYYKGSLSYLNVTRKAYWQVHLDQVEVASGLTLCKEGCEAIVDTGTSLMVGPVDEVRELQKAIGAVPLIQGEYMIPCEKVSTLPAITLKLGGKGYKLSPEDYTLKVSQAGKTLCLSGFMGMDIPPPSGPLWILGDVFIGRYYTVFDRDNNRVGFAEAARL
memapsin 2, sequence (P56817 46-501): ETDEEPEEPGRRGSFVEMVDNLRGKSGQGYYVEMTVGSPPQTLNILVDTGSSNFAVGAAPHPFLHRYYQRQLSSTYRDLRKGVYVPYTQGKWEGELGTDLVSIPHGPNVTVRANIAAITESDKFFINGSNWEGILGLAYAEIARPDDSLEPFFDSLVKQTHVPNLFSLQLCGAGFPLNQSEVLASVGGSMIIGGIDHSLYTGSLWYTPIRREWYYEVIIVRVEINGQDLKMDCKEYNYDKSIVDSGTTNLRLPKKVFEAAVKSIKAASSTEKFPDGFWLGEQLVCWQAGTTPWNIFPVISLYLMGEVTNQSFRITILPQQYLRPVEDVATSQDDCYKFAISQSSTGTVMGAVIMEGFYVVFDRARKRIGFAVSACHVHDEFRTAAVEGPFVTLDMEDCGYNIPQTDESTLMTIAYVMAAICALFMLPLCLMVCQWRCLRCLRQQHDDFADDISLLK

Row | Compound | Ki [1, 5] [nM] | Ki [2, 6] [nM] | Ki [3, 7] [nM] | IC50 [4, 8] [nM] | Ki ([1]; read-out: M2 Ki) [nM] | Ki ([2]; read-out: CathD Ki) [nM] | Ki ([3]; read-out: M1 Ki) [nM] | IC50 ([4]; cellular Aβ) [nM]
1 | Cc1csc([C@H]2CCCN2C(=O)c2cccc(C(=O)N[C@@H](Cc3ccccc3)[C@H](O)CNCc3cncc(C(C)C)c3)c2)n1 [Compound 2, N-((2S,3R)-3-hydroxy-4-((5-isopropylpyridin-3-yl)methylamino)-1-phenylbutan-2-yl)-3-((R)-2-(4-methylthiazol-2-yl)pyrrolidine-1-carbonyl)benzamide] | < 100 | 301 to 500 | < 300 | < 300 |  |  |  | 
2 | COc1cccc(CNC[C@@H](O)[C@H](Cc2ccccc2)NC(=O)c2cc(C)cc(C(=O)N3CCC[C@@H]3c3nc(C)cs3)c2)c1 [Compound 6, N-((2S,3R)-3-hydroxy-4-(3-methoxybenzylamino)-1-phenylbutan-2-yl)-3-methyl-5-((R)-2-(4-methylthiazol-2-yl)pyrrolidine-1-carbonyl)benzamide] | < 100 | 301 to 500 | > 501 | < 300 |  |  |  | 
3 | Cc1csc([C@H]2CCCN2C(=O)c2cccc(C(=O)N[C@@H](Cc3ccccc3)[C@H](O)CNCc3cccc(C(F)(F)F)c3)c2)n1 [Compound 9, N-((2S,3R)-3-hydroxy-1-phenyl-4-(3-(trifluoromethyl)benzylamino)butan-2-yl)-3-((R)-2-(4-methylthiazol-2-yl)pyrrolidine-1-carbonyl)benzamide] | < 100 | > 501 | 301 to 500 | < 300 |  |  |  | 
4 | Cc1csc([C@H]2CCCN2C(=O)c2cccc(C(=O)N[C@@H](Cc3ccccc3)[C@H](O)CNCc3cccc(C(C)(C)C)c3)c2)n1 [Compound 10, N-((2S,3R)-4-(3-tert-butylbenzylamino)-3-hydroxy-1-phenylbutan-2-yl)-3-((R)-2-(4-methylthiazol-2-yl)pyrrolidine-1-carbonyl)benzamide] | < 100 | > 501 | 301 to 500 | < 300 |  |  |  | 
5 | Cc1cc(C(=O)N[C@@H](Cc2ccccc2)[C@H](O)CNCc2cccc(C(F)(F)F)c2)cc(C(=O)N2CCC[C@@H]2c2nc(C)cs2)c1 [Compound 12, N-((2S,3R)-3-hydroxy-1-phenyl-4-(3-(trifluoromethyl)benzylamino)butan-2-yl)-3-methyl-5-((R)-2-(4-methylthiazol-2-yl)pyrrolidine-1-carbonyl)benzamide] | < 100 | > 501 | < 300 | < 300 |  |  |  | 
6 | Cc1cc(C(=O)N[C@@H](Cc2ccccc2)[C@H](O)CNCc2cccc(C(C)(C)C)c2)cc(C(=O)N2CCC[C@@H]2c2nc(C)cs2)c1 [Compound 14, N-((2S,3R)-4-(3-tert-butylbenzylamino)-3-hydroxy-1-phenylbutan-2-yl)-3-methyl-5-((R)-2-(4-methylthiazol-2-yl)pyrrolidine-1-carbonyl)benzamide] | < 100 | < 300 | < 300 | < 300 |  |  |  | 
7 | COc1cccc(CNC[C@@H](O)[C@H](Cc2ccccc2)NC(=O)c2cccc(C(=O)N3COC[C@@H]3c3nc(C)cs3)c2)c1 [Compound 15, N-((2S,3R)-3-hydroxy-4-(3-methoxybenzylamino)-1-phenylbutan-2-yl)-3-((R)-4-(4-methylthiazol-2-yl)oxazolidine-3-carbonyl)benzamide] | < 100 | < 300 | 301 to 500 | < 300 |  |  |  | 
8 | Cc1cc(C(=O)N[C@@H](Cc2ccccc2)[C@H](O)CNCc2cccc(C(C)(F)F)c2)cc(C(=O)N2CCC[C@@H]2c2nc(C)co2)c1 [Compound 104, N-((2S,3R)-4-(3-(1,1-difluoroethyl)benzylamino)-3-hydroxy-1-phenylbutan-2-yl)-3-methyl-5-((R)-2-(4-methyloxazol-2-yl)pyrrolidine-1-carbonyl)benzamide] | < 100 |  |  | < 300 |  |  |  | 
9 | C=C(C)c1cccc(CNC[C@@H](O)[C@H](Cc2ccccc2)NC(=O)c2cccc(C(=O)N3CCC[C@@H]3c3nc(C)co3)c2)c1 [Compound 105, N-((2S,3R)-3-hydroxy-1-phenyl-4-(3-(prop-1-en-2-yl)benzylamino)butan-2-yl)-3-((R)-2-(4-methyloxazol-2-yl)pyrrolidine-1-carbonyl)benzamide] | < 100 |  |  | < 300 |  |  |  | 
10 | Cc1csc([C@H]2CCCN2C(=O)c2cccc(C(=O)N[C@@H](Cc3ccccc3)[C@H](O)CNCc3cccc(C(F)(F)F)c3)c2)n1 [N-((2S,3R)-3-hydroxy-1-phenyl-4-(3-(trifluoromethyl)benzylamino)butan-2-yl)-3-((R)-2-(4-methylthiazol-2-yl)pyrrolidine-1-carbonyl)benzamide] |  |  |  |  | 7.09 | 1080 | 826 | 23
